Assay results reported in patent US4810648A, “Haloarylnitrile degrading gene, its use, and cells containing the gene” (Rhone Poulenc Agrochimie, priority 1987, dated 1989).

Tests used:
[1] = target: T1, Klebsiella ozaenae bromoxynil-specific nitrilase, N-terminal modified variant nit-23 (pBrx23) (Klebsiella pneumoniae, UniProt P10045); test: Kinetics of purified N-terminal modified nitrilase; format: biochemical, Klebsiella pneumoniae sub-species ozaenae; details: purified nit-23
T1 construct: natural N-terminus truncated (Bal31, about 51 nt removed) and replaced by 17 pUC19-encoded residues; purified enzyme
Experimental: Plasmid pBrx9 was digested with BamH1, followed by resection with Bal31 for about 5 min to remove about 51 nt. The enzyme was inactivated, the resected linear DNA sequence ligated with BamH1 linkers, digested with BamH1 and recircularized under ligating conditions. […] This fragment was inserted into pCGN 566 which had been completely digested with BamH1 and SmaI to produce plasmid pBrx23, of 3.7Kb. Plasmid pCGN 566 is a derivative of pUC13 with polylinkers from pUC18 and pUC19 and the chloramphenicol resistance gene. The fragment from pBrx15 is inserted to be in reading frame with an upstream initiation codon and where 17 amino acids encoded by the pUC19 sequence replace amino acids of the naturally occurring nitrilase.
The following provides the sequence of the N-terminal modified nitrilase (nit-23). [drawing 3] Purification of the Wild-Type and Altered Nitrilase
Nitrilase was prepared from stationary phase MM 294 E. coli cells containing the pBrx9, pBrx11 or pBrx28 plasmids. Cultures were grown under ampicillin selection until the whole cell nitrilase assay yielded an OD640 of approximately 2.0. Cultures were centrifuged at 8,000 xg for 15 min at 4° C. The cells were washed in 0.1M potassium phosphate buffer pH 7.4, repelleted, dried, and frozen at -20° C. The pellet was thawed at 4° C. and resuspended in 40 ml 50 mM potassium phosphate buffer with 1 mM dithiothreitol, 0.1 mM EDTA (KDE). […]

tobacco leaf sections = test: Tobacco leaf sections in bromoxynil containing media under photoautotrophic conditions; format: cell-based, Nicotiana tabacum cv. "Xanthi"
Experimental: The plasmids were transformed into A, tumefaciens strain LBA4404, followed by co-cultivation with tobacco (Nicotiana tabacum cv. "Xanthi") cotyledonary explants. Kanamycin-resistant shoots were regenerated into tobacoo plants in accordance with conventional techniques.
Approximately 5 mm leaf section from surface-sterilized (10% hypochloriate; water-washed) leaves were suspended in bromoxynil containing media under photoautotrophic conditions. The media employed was MS salts containing 0.93 mg/l naphthylacetic acid and 0.11 mg/l benzylaminopurine, with varying amounts of bromoxynil. The concentration of bromoxynil varied from 10^-3 to 10^-6 M at 0.1 dilutions. The photoautotrophic conditions were 5% CO2, 10% O2, 85% N2. Control tobacco leaf sections which had not been transformed were bleached (inhibited) at 10^-6 M bromoxynil. By contrast, transformed leaf sections expressing the bromoxynil-specific nitrilase from plasmids pBrx39 and pBrx40 were resistant to 10^-5 M and 10^-4 M bromoxynil, respectively.

tomato leaf sections = test: Tomato leaf sections in bromoxynil-containing medium under photoautotrophic conditions; format: cell-based, Lycopersicon esculentum cv. UC828
Experimental: Co-cultivation of tomato (Lycopersicon esculentum cv. UC828) cotyledonary explants was carried out as described previously with tobacco and kanamycin shoots regenerated. […] Approximately 5 mm leaf sections from surface-sterilized(10% hypochlorite; water washed) leaves were suspended in bromoxynil-containing medium at varying concentrations under photoautotrophic conditions. The media was MS salts containing 2 mg/l […], 1 mg/l isopentyladenine and 100 mg/l myoinositol and bromoxynil at 10^-5 or 10^-6 M. The same photoautotrophic conditions were employed as described for tobacco. […] Transgenic tomato plants (10-20 leaf stage) were sprayed with a commercial formulation of bromoxynil (BUCTRIL) and found to be resistant at 0.5 lbs/acre.

N#Cc1cc(Br)c(O)c(Br)c1 = test: Kinetics of purified wild-type bromoxynil-specific nitrilase; format: biochemical, Klebsiella pneumoniae sub-species ozaenae; details: other: purified nit-wt, substrate not given, 30.0 °C
Experimental: All four colonies were grown in 200 mls L-broth containing 0.05% bromoxynil. Cells were disrupted with a French press, the high speed supernatants dialyzed against buffer containing 0.05M KPO, pH7.5; 2.5 mM dithiothreitol (DTT) and the individual crude extracts assayed for bromoxynil specific nitrilase activity. […] Cells (200 ml) were grown at 30° C. to mid log phase in M9 medium (Miller (1972) Experiments in Molecular Genetics, Cold Spring Harbor Laboratory) containing 0.1% glucose and 0.04% bromoxynil. Crude extracts were prepared by cell disruption, ultracentrifugation and dialysis of the supernatant in buffer containing 0.05M KPO4 pH 7.5 and 2.5 mM DTT. Substrate concentarion was 3 mM bromoxynil in all assays. Release of NH3 was monitored according to Harper Biochem. J. (1977) 167:685-692. The ability of K. ozaenae variant to grow in L-broth containing bromoxynil may result in acquired impermeability of the organism to the compound. However, the organism cannot grow in defined media utilizing bromoxynil as sole nitrogen source.
Nitrilase was prepared from stationary phase MM 294 E. coli cells containing the pBrx9, pBrx11 or pBrx28 plasmids. Cultures were grown under ampicillin selection until the whole cell nitrilase assay yielded an OD640 of approximately 2.0. Cultures were centrifuged at 8,000 xg for 15 min at 4° C. […]

| Compound | Km [1] | Vmax [1] | minimal effective concentration (tobacco leaf sections; Nicotiana tabacum, control tobacco leaf sections, not transformed, read-out: concentration at which leaf sections were bleached (inhibited)) | concentration to which leaf sections were resistant (tobacco leaf sections; transformed tobacco leaf sections expressing nitrilase from pBrx39) | concentration to which leaf sections were resistant (tobacco leaf sections; transformed tobacco leaf sections expressing nitrilase from pBrx40) | minimal effective concentration (tomato leaf sections; Solanum lycopersicum, control tomato leaf sections, not transformed, read-out: concentration at which leaf sections were bleached) | concentration to which leaf sections were resistant (tomato leaf sections; transformed tomato expressing nitrilase gene from pBrx29) | Km (N#Cc1cc(Br)c(O)c(Br)c1) |
| --- | --- | --- | --- | --- | --- | --- | --- | --- |
| N#Cc1cc(Br)c(O)c(Br)c1 [bromoxynil, 3,5-dibromo-4-hydroxybenzonitrile] | 110 µM | 9 µmol/min/mg | 1 µM | 10^-5 M | 10^-4 M | 1 µM | 10^-5 M |  |
| Klebsiella ozaenae bromoxynil-specific nitrilase, wild type (nit-wt, from pBrx9) (Klebsiella pneumoniae subsp. ozaenae) |  |  |  |  |  |  |  | 310 µM |
